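Briefly, cells in 96-well plates were exposed to five compound concentrations for 48 h, and endpoints were estimated by linear interpolation. At the GI50, growth is halved.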 Active and inactive are the calls of the source. Cut-off read from the data, not from the text of the source: active = GI50 up to about 1.1 µM and inactive = higher.
Key:
Assay in all cases: NCI anticancer screen, dose series, 48 h
786-0 = system: 786-0
A498 = system: A498
A549 = system: A549
ACHN = system: ACHN
CCRF-CEM = system: CCRF-CEM
COLO 205 = system: COLO 205
DLD-1 = system: DLD-1
DMS-114 = system: DMS-114
EKVX = system: EKVX
HCC 2998 = system: HCC 2998
HCT-116 = system: HCT-116
HCT-15 = system: HCT-15
HL-60 = system: HL-60
HOP-18 = system: HOP-18
HOP-62 = system: HOP-62
HOP-92 = system: HOP-92
HT-29 = system: HT-29
IGROV-1 = system: IGROV-1
K562 = system: K562
KM-20L2 = system: KM-20L2
KM12 = system: KM12
LOX IMVI = system: LOX IMVI
LXFL 529 = system: LXFL 529
M14 = system: M14
M19-MEL = system: M19-MEL
MOLT-4 = system: MOLT-4
Malme-3M = system: Malme-3M
NCI-H226 = system: NCI-H226
NCI-H23 = system: NCI-H23
NCI-H460 = system: NCI-H460
NCI-H522 = system: NCI-H522
OVCAR-3 = system: OVCAR-3
OVCAR-4 = system: OVCAR-4
OVCAR-5 = system: OVCAR-5
OVCAR-8 = system: OVCAR-8
RPMI-8226 = system: RPMI-8226
RXF 393 = system: RXF 393
RXF 631 = system: RXF 631
SF-268 = system: SF-268
SF-295 = system: SF-295
SF-539 = system: SF-539
SK-MEL-28 = system: SK-MEL-28
SK-MEL-2 = system: SK-MEL-2
SK-OV-3 = system: SK-OV-3
SN12C = system: SN12C
SNB-19 = system: SNB-19
SNB-75 = system: SNB-75
SNB-78 = system: SNB-78
SW-620 = system: SW-620
TK-10 = system: TK-10
U-251 = system: U-251
UACC-257 = system: UACC-257
UACC-62 = system: UACC-62
UO-31 = system: UO-31
XF498 = system: XF498
CAKI-1 = system: CAKI-1
DMS-273 = system: DMS-273

CC1=C(C(=O)Nc2ccc([N+](=O)[O-])cc2)C(c2cccc([N+](=O)[O-])c2)C(C(=O)Nc2ccc([N+](=O)[O-])cc2)=C(C)N1
GI50 (786-0): 48.2 µM (inactive)
GI50 (A498): 32.8 µM (inactive)
GI50 (A549): 29.7 µM (inactive)
GI50 (ACHN): 20 µM (inactive)
GI50 (CCRF-CEM): 12.6 µM (inactive)
GI50 (COLO 205): 45.8 µM (inactive)
GI50 (DLD-1): 9.66 µM (inactive)
GI50 (DMS-114): 8.53 µM (inactive)
GI50 (EKVX): 48.2 µM (inactive)
GI50 (HCC 2998): 25.6 µM (inactive)
GI50 (HCT-116): 5.97 µM (inactive)
GI50 (HCT-15): 61.7 µM
GI50 (HL-60): 16.4 µM (inactive)
GI50 (HOP-18): > 100 µM (inactive)
GI50 (HOP-62): 64.3 µM (inactive)
GI50 (HOP-92): 5.31 µM (inactive)
GI50 (HT-29): 21.9 µM (inactive)
GI50 (IGROV-1): 21.2 µM (inactive)
GI50 (K562): 9.93 µM (inactive)
GI50 (KM-20L2): 16.6 µM (inactive)
GI50 (KM12): 12.1 µM (inactive)
GI50 (LOX IMVI): 11.1 µM (inactive)
GI50 (LXFL 529): 8.53 µM (inactive)
GI50 (M14): 24.3 µM (inactive)
GI50 (M19-MEL): 23 µM (inactive)
GI50 (MOLT-4): 5.35 µM (inactive)
GI50 (Malme-3M): 25.2 µM (inactive)
GI50 (NCI-H226): 58.3 µM (inactive)
GI50 (NCI-H23): 13.3 µM (inactive)
GI50 (NCI-H460): 27.7 µM (inactive)
GI50 (NCI-H522): 20.5 µM (inactive)
GI50 (OVCAR-3): 44.5 µM (inactive)
GI50 (OVCAR-4): 48.6 µM (inactive)
GI50 (OVCAR-5): > 100 µM (inactive)
GI50 (OVCAR-8): 17.8 µM (inactive)
GI50 (RPMI-8226): 7.78 µM (inactive)
GI50 (RXF 393): 16.2 µM (inactive)
GI50 (RXF 631): > 100 µM (inactive)
GI50 (SF-268): 21.6 µM (inactive)
GI50 (SF-295): 30.1 µM (inactive)
GI50 (SF-539): 60.3 µM (inactive)
GI50 (SK-MEL-28): 30.7 µM (inactive)
GI50 (SK-MEL-2): 33.1 µM (inactive)
GI50 (SK-OV-3): 8.45 µM (inactive)
GI50 (SN12C): 30.5 µM (inactive)
GI50 (SNB-19): 52.7 µM (inactive)
GI50 (SNB-75): 23.7 µM (inactive)
GI50 (SNB-78): > 100 µM (inactive)
GI50 (SW-620): 31.9 µM (inactive)
GI50 (TK-10): 37.5 µM (inactive)
GI50 (U-251): 9.71 µM (inactive)
GI50 (UACC-257): 16 µM (inactive)
GI50 (UACC-62): 5.28 µM (inactive)
GI50 (UO-31): > 100 µM (inactive)
GI50 (XF498): 2.87 µM (inactive)

COC(=O)C1=C(C)N(NC(N)=O)C2(N)N(NC(N)=O)C(C)=C(C(=O)OC)C12C#N (centres undefined)
GI50 (786-0): > 100 µM (inactive)
GI50 (A498): > 100 µM (inactive)
GI50 (A549): > 100 µM (inactive)
GI50 (ACHN): > 100 µM (inactive)
GI50 (CAKI-1): > 100 µM (inactive)
GI50 (CCRF-CEM): > 100 µM (inactive)
GI50 (COLO 205): > 100 µM (inactive)
GI50 (DLD-1): > 100 µM (inactive)
GI50 (DMS-114): > 100 µM (inactive)
GI50 (DMS-273): > 100 µM (inactive)
GI50 (EKVX): > 100 µM (inactive)
GI50 (HCC 2998): > 100 µM (inactive)
GI50 (HCT-116): > 100 µM (inactive)
GI50 (HCT-15): > 100 µM
GI50 (HL-60): > 100 µM (inactive)
GI50 (HOP-18): > 100 µM (inactive)
GI50 (HOP-62): > 100 µM (inactive)
GI50 (HOP-92): > 100 µM (inactive)
GI50 (HT-29): > 100 µM (inactive)
GI50 (IGROV-1): > 100 µM (inactive)
GI50 (K562): > 100 µM (inactive)
GI50 (KM-20L2): > 100 µM (inactive)
GI50 (KM12): > 100 µM (inactive)
GI50 (LOX IMVI): > 100 µM (inactive)
GI50 (M14): > 100 µM (inactive)
GI50 (M19-MEL): > 100 µM (inactive)
GI50 (MOLT-4): > 100 µM (inactive)
GI50 (Malme-3M): > 100 µM (inactive)
GI50 (NCI-H226): > 100 µM (inactive)
GI50 (NCI-H23): > 100 µM (inactive)
GI50 (NCI-H460): > 100 µM (inactive)
GI50 (NCI-H522): > 100 µM (inactive)
GI50 (OVCAR-3): > 100 µM (inactive)
GI50 (OVCAR-4): > 100 µM (inactive)
GI50 (OVCAR-5): > 100 µM (inactive)
GI50 (OVCAR-8): > 100 µM (inactive)
GI50 (RPMI-8226): > 100 µM (inactive)
GI50 (RXF 631): > 100 µM (inactive)
GI50 (SF-268): > 100 µM (inactive)
GI50 (SF-295): > 100 µM (inactive)
GI50 (SF-539): > 100 µM (inactive)
GI50 (SK-MEL-28): > 100 µM (inactive)
GI50 (SK-MEL-2): > 100 µM (inactive)
GI50 (SK-OV-3): > 100 µM (inactive)
GI50 (SN12C): > 100 µM (inactive)
GI50 (SNB-19): > 100 µM (inactive)
GI50 (SNB-78): > 100 µM (inactive)
GI50 (SW-620): > 100 µM (inactive)
GI50 (TK-10): > 100 µM (inactive)
GI50 (U-251): > 100 µM (inactive)
GI50 (UACC-257): > 100 µM (inactive)
GI50 (UACC-62): > 100 µM (inactive)
GI50 (UO-31): > 100 µM (inactive)
GI50 (XF498): > 100 µM (inactive)
